Test results as given in ChEMBL document CHEMBL1828565, “Potential AMPK activators of cucurbitane triterpenoids from Siraitia grosvenorii Swingle” (Bioorg Med Chem, 2011).
Active and inactive are the calls of the source. The calls are words filed in the database; no cut-off is given here.

target: T1, AMP-activated protein kinase, AMPK (Homo sapiens) (UniProt P54646+O43741+P54619+Q9UGJ0+Q9Y478+Q13131+Q9UGI9); assay: Activation of AMPK in human HepG2 cells assessed as increase in AMPK phosphorylation at 1 to 20 uM after 30 mins by Western blotting; type: cell-based

| Compound | Activity |
| --- | --- |
| COc1ccc2cc3[n+](cc2c1OC)CCc1cc2c(cc1-3)OCO2 | Active |
| CC(C)C(=O)CC[C@@H](C)[C@H]1CC[C@@]2(C)[C@@H]3CC=C4[C@@H](CC[C@H](O)C4(C)C)[C@]3(C)[C@H](O)C[C@]12C | Active |
| C[C@H](CC[C@@H](O)C(C)(C)O)[C@H]1CC[C@@]2(C)[C@@H]3CC=C4[C@@H](CC[C@H](O)C4(C)C)[C@]3(C)C(=O)C[C@]12C | Active |
| C[C@H](CC[C@@H](O[C@@H]1O[C@H](CO[C@@H]2O[C@H](CO)[C@@H](O)[C@H](O)[C@H]2O)[C@@H](O)[C@H](O)[C@H]1O[C@@H]1O[C@H](CO)[C@@H](O)[C@H](O)[C@H]1O)C(C)(C)O)[C@H]1CC[C@@]2(C)[C@@H]3CC=C4[C@@H](CC[C@H](O[C@@H]5O[C@H](CO[C@@H]6O[C@H](CO)[C@@H](O)[C@H](O)[C@H]6O)[C@@H](O)[C@H](O)[C@H]5O)C4(C)C)[C@]3(C)[C@H](O)C[C@]12C | inactive |
| CC(C)C(=O)CC[C@@H](C)[C@H]1CC[C@@]2(C)[C@@H]3CC=C4[C@@H](CC[C@H](O)C4(C)C)[C@]3(C)C(=O)C[C@]12C | Active |

More lines, now with the values ahead:

| Activity | Compound |
| --- | --- |
| Active | C[C@H](CC[C@@H](O)C(C)(C)O)[C@H]1CC[C@@]2(C)[C@@H]3CC=C4[C@@H](CC[C@H](O)C4(C)C)[C@]3(C)[C@H](O)C[C@]12C |
| Active | C[C@H](CC[C@@H](O)C(C)(C)O)[C@H]1CC[C@@]2(C)[C@@H]3CC=C4[C@@H](CC[C@@H](O)C4(C)C)[C@]3(C)[C@H](O)C[C@]12C |
| Active | COC(C)(C)[C@H](O)CC[C@@H](C)[C@H]1CC[C@@]2(C)[C@@H]3CC=C4[C@@H](CC[C@H](O)C4(C)C)[C@]3(C)C(=O)C[C@]12C |
| Active | COC(C)(C)[C@H](O)CC[C@@H](C)[C@H]1CC[C@@]2(C)[C@@H]3CC=C4[C@@H](CC[C@H](O)C4(C)C)[C@]3(C)[C@H](O)C[C@]12C |

target: T1, AMP-activated protein kinase, AMPK (Homo sapiens); assay: Activation of AMPK in human HepG2 cells assessed as increase in AMPK phosphorylation at 10 uM after 30 mins by Western blotting; type: cell-based

| Compound | Activity |
| --- | --- |
| CC(C)C(=O)CC[C@@H](C)[C@H]1CC[C@@]2(C)[C@@H]3CC=C4[C@@H](CC[C@@H](O)C4(C)C)[C@]3(C)[C@H](O)C[C@]12C | Active |
